{
  "source": "paper PMC3029496",
  "about": "(Biochemistry, 2010)",
  "target": "PncA H57D mutant (Mycobacterium tuberculosis, UniProt I6XD65, H57D)",
  "format": "biochemical",
  "data": [
    {"smiles": "NC(=O)c1cnccn1", "note": "[pyrazinamide]", "values": [
      {"measurement": "decrease in Km, H57D mutant versus wild type", "result": 20, "unit": "fold"},
      {"measurement": "decrease in kcat (catalytic turnover), H57D mutant versus wild type", "result": 38, "unit": "fold"},
      {"measurement": "kcat", "result": "0.10 ± 0.01", "unit": "s⁻¹"}
    ]}
  ]
}
